Test results taken from article PMC12056086 (Nature Communications, 2025).

What was measured:
[1] = target: human dopamine transporter (hDAT) (Homo sapiens, UniProt Q01959, K384A)
[2] = target: human dopamine transporter (hDAT) (Homo sapiens, UniProt Q01959, G386H)
[3] = target: human dopamine transporter (hDAT) (Homo sapiens, UniProt Q01959, V152I)
[4] = target: human dopamine transporter (hDAT) (Homo sapiens, UniProt Q01959, K92A)
[5] = target: human dopamine transporter (hDAT) (Homo sapiens, UniProt Q01959); assay: cell-based; conditions: read-out: single-molecule AFM force spectroscopy on live cells
Sequence of human dopamine transporter (hDAT) (Homo sapiens, UniProt Q01959) (Q01959 whole entry): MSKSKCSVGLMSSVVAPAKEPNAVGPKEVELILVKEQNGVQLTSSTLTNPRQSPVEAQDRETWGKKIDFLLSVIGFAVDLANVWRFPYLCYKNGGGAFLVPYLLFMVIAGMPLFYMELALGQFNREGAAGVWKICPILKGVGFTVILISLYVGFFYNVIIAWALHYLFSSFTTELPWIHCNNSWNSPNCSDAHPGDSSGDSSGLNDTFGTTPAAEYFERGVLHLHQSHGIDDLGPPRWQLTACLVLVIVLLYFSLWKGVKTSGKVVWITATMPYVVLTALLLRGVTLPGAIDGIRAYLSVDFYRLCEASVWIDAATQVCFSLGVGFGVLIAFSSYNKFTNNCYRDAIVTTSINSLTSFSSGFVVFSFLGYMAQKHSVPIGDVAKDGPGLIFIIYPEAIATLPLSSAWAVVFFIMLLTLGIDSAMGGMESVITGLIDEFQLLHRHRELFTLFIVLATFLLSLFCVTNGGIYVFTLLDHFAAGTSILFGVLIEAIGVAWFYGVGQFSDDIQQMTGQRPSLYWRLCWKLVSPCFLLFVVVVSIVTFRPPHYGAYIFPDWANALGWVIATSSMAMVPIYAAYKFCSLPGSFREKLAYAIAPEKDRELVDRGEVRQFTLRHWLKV

Sequence of human dopamine transporter (hDAT) (Homo sapiens, UniProt Q01959, K384A) (Q01959 whole entry K384A): as the sequence (Q01959 whole entry) above, with K384A counted along it
Sequence of human dopamine transporter (hDAT) (Homo sapiens, UniProt Q01959, G386H) (Q01959 whole entry G386H): as the sequence (Q01959 whole entry) above, with G386H counted along it
Sequence of human dopamine transporter (hDAT) (Homo sapiens, UniProt Q01959, V152I) (Q01959 whole entry V152I): as the sequence (Q01959 whole entry) above, with V152I counted along it
Sequence of human dopamine transporter (hDAT) (Homo sapiens, UniProt Q01959, K92A) (Q01959 whole entry K92A): as the sequence (Q01959 whole entry) above, with K92A counted along it

In the case of `NCCc1ccc(O)c(O)c1` [dopamine], the “single-molecule AFM force spectroscopy on live cells” value [1] is reported as “both K92A and K384A diminished the population of weaker unbinding events, indicating that both lysines are involved in the S2 site”, the “single-molecule AFM force spectroscopy on live cells” value [2] is reported as “dopamine was still able to bind to the S2 site of DAT-G386H, albeit with lower binding strength” and the “single-molecule AFM force spectroscopy on live cells” value [3] is reported as “(V152I) also reduced the population of stronger binding events (d) while the overall binding activity is preserved”. The “single-molecule AFM force spectroscopy on live cells” value [4] was “both K92A and K384A diminished the population of weaker unbinding events, indicating that both lysines are involved in the S2 site” and the koff [5] was 0.11 ± 0.03 s⁻¹.
